# Entries after “also recorded” stand apart in the source; their conditions may differ.
# Columns and labels:
# PPARγ mRNA = assay: Relative expression of PPARγ mRNA in the left ventricular myocardium (RtPCR); format: in vivo, mouse; conditions: αMHC^719/+ mice, oral rosiglitazone, 6 weeks, compared to wild-type level
# Protocol: FIG. 7 Relative expression of PPARγ mRNA in the left ventricular myocardium of untreated HCM mice and HCM mice (αMHC^719/+) treated with N-acetylcysteine (NAC) or rosiglitazone (Rosi) compared to wild-type mice (WT) after 6 weeks; ***: p<0.001.
# RNA isolation was carried out by means of the peqGOLD Total RNA Kit (Peqlab) from the left ventricular myocardium according to the manufacturer's instructions. First-strand cDNA was synthesized from 500 ng of total RNA, which is reverse-transcribed (Reverse Transcription Kit, Invitrogen) with random hexamers (TIB Molbiol). RtPCR analysis is carried out with Perfecta SYBR Green fast Mix (VWR, Germany) in the QIAGEN Rotor-Gene Q (Corbett Rotor-Gene 6000). Quantification is done by means of […] calculation and randomization test^49,50.
# [1] = system: αMHC^719/+ HCM mouse model; assay: Preclinical αMHC^719/+ HCM mouse model, overall summary of results; format: in vivo; conditions: oral administration in the αMHC^719/+ HCM mouse model
# Protocol: The examinations were carried out on an established HCM mouse model, in which an arginine-to-tryptophan mutation at position 719 of the heavy chain of the cardiac mouse alpha-myosin gene was effected by homologous recombination (referred to as αMHC^719/+)^38. Such genetically modified mice increasingly develop the typical pathognomonic disease characteristics of hypertrophic cardiomyopathy such as myocardial hypertrophy and fibrosis with increasing age. The phenotype of this genetically generated HCM mouse model thus simulates the phenotype of HCM patients affected^36,37,38. The manifestation of the disease can be accelerated by subcutaneous administration of the calcineurin inhibitor cyclosporin A (CsA)^9.
# Between their 6th and 12th postnatal week, all mice were injected subcutaneously with cyclosporin A (CsA) to accelerate hypertrophic remodeling in the myocardium in the HCM mouse model^9. Half of the mice were treated with the PPARγ agonists rosiglitazone and pioglitazone from the group of thiazolidinediones between their 6th and 12th postnatal week. In their 12th postnatal week, they were subjected to in vivo transthoracic echocardiography. The animals were then euthanized for ex vivo examination (organ removal, histopathology, and determination of radical oxygen species, of mRNA and protein expression in the tissue) (see FIG. 10).D
# HCM mice (αMHC^719/+) [2] = assay: Semi-quantitative myocardial fibrosis score on Masson's trichrome sections, stereoisomers of pioglitazone (experimental setup C); format: in vivo, mouse; conditions: αMHC^719/+ mice, 10 mg/kg/day orally, 6 weeks, vs untreated αMHC^719/+
# Protocol: FIG. 13 Determination of myocardial fibrosis using histopathological sections of myocardium. The manifestation of myocardial fibrosis (blue-colored in the Masson's trichrome-stained histological sections) was determined semi-quantitatively by two blinded examiners in each case independently of one another. The scores assigned were 0 to 3:0: no fibrosis, 1: mild fibrosis; 2: moderate fibrosis, 3: severe fibrosis; 0.5: no to mild fibrosis, 1.5: mild to moderate fibrosis; 2.5: moderate to severe fibrosis, 3: severe fibrosis. The animals were genotyped in their 3rd postnatal week (as also described in accordance with experimental setup A). Between their 6th and 12th postnatal week, all 65 mice were orally administered a daily dose of 30 mg/kg cyclosporin A (CsA) which was added to their pellet diet to accelerate hypertrophic remodeling in the myocardium in the HCM mouse model^56. Between their 6th and 12th postnatal week, (a) 13 WT and 9 MHC^719/+ mice were in addition treated orally with the (R)-stereoisomer of a thiazolidinedione (pioglitazone) (10 mg/kg/day) or (b) 12 WT and 11 αMHC^719/+ mice were in addition treated orally with the (S)-stereoisomer (pioglitazone) (10 mg/kg/day). In their 12th postnatal week, they were subjected to in vivo transthoracic echocardiography. The animals were then euthanized for ex vivo examination (organ removal and histopathology) (see FIG. 11). Examination by echocardiography was done as follows—specifically: removal of the mice from the cage, weighing and visual assessment of the animals, performance of echocardiography according to standardized, published standard protocols in conscious animals after 30 minutes of observation^39,41,37,40. In order to quantify fibrosis, the removed hearts were fixed in 4% of paraformaldehyde, dehydrated, and placed in paraffin, as described above^37,42,43. 5-μm sections were stained with Masson's trichrome. Semi-quantification of myocardial fibrosis was done independently of one another by two blinded examiners. For this purpose, the percentage of cardiac muscle portions stained blue with Masson's trichrome in relation to the overall stained cardiac muscle was calculated. Perivascular and intramurine structures, the endocardium, and trabeculas were excluded in the calculation of the percentage of fibrosis. The classification was “no fibrosis,” “mild fibrosis,” “moderate fibrosis,” and “severe fibrosis.”
# HCM mice (αMHC^719/+) [3] = assay: Echocardiography: maximum left ventricular wall thickness, stereoisomers of pioglitazone (experimental setup C); format: in vivo, mouse; conditions: αMHC^719/+ mice, 10 mg/kg/day orally, 6 weeks, vs untreated αMHC^719/+
# Text: This experimental protocol examined the action of the two stereoisomers of a thiazolidinedione (pioglitazone) ((S)- and (R)-stereoisomers) in the same hypertrophic cardiomyopathy mouse model as described for experimental setup A. The experimental setup is thus similar to the experimental setup according to A. The animals were genotyped in their 3rd postnatal week (as also described in accordance with experimental setup A). Between their 6th and 12th postnatal week, all 65 mice were orally administered a daily dose of 30 mg/kg cyclosporin A (CsA) which was added to their pellet diet to accelerate hypertrophic remodeling in the myocardium in the HCM mouse model^56. Between their 6th and 12th postnatal week, (a) 13 WT and 9 MHC^719/+ mice were in addition treated orally with the (R)-stereoisomer of a thiazolidinedione (pioglitazone) (10 mg/kg/day) or (b) 12 WT and 11 αMHC^719/+ mice were in addition treated orally with the (S)-stereoisomer (pioglitazone) (10 mg/kg/day). In their 12th postnatal week, they were subjected to in vivo transthoracic echocardiography. The animals were then euthanized for ex vivo examination (organ removal and histopathology) (see FIG. 11). As shown in experimental setup A, in vivo phenotyping of the left ventricular wall thickness and ventricular function was done by means of transthoracic echocardiography, as described above^40,41,39. Examination by echocardiography was done as follows—specifically: removal of the mice from the cage, weighing and visual assessment of the animals, performance of echocardiography according to standardized, published standard protocols in conscious animals after 30 minutes of observation^39,41,37,40. In order to quantify fibrosis, the removed hearts were fixed in 4% of paraformaldehyde, dehydrated, and placed in paraffin, as described above^37,42,43. […] Semi-quantification of myocardial fibrosis was done independently of one another by two blinded examiners. For this purpose, the percentage of cardiac muscle portions stained blue with Masson's trichrome in relation to the overall stained cardiac muscle was calculated. […]
# [4] = (R)-Pio p=0.01, (S)-Pio p=0.916
# [5] = (R)-Pio p<0.001, (S)-Pio p=0.072
compound,measurement,setting,value
"CN(CCOc1ccc(CC2SC(=O)NC2=O)cc1)c1ccccn1 (racemic) [rosiglitazone, (RS)-5-({4-[2-(methyl-2-pyridinylamino)ethoxy]phenyl}methyl)-2,4-thiazolidinedione]",myocardial mRNA expression of PPARγ,PPARγ mRNA,increases the myocardial mRNA expression of PPARγ again almost completely to wild-type level
same,changes in biophysical properties in the heart muscle cell and onset of myocardial hypertrophy and fibrosis,[1],largely prevents
"CCc1ccc(CCOc2ccc(C[C@@H]3SC(=O)NC3=O)cc2)nc1 (single isomer, unassigned) [(S)-stereoisomer of pioglitazone]",development of myocardial fibrosis (semi-quantitative score 0 to 3),HCM mice (αMHC^719/+) [2]; [4],not in a reduction of myocardial fibrosis
same,development of myocardial fibrosis (semi-quantitative score 0 to 3),"HCM mice (αMHC^719/+) [2]; (R)-Pio p=0.01, (S)-Pio p=0.916, listed as S-stereoisomer of pioglitazone",cannot be seen
same,development of myocardial hypertrophy (maximum thickness of the wall of the left ventricle),HCM mice (αMHC^719/+) [3]; [5],tends to result in lessened hypertrophy; also recorded: less pronounced
"CCc1ccc(CCOc2ccc(C[C@H]3SC(=O)NC3=O)cc2)nc1 (single isomer, unassigned) [(R)-stereoisomer of pioglitazone]",development of myocardial fibrosis (semi-quantitative score 0 to 3),HCM mice (αMHC^719/+) [2]; [4],significantly inhibited
same,development of myocardial fibrosis (semi-quantitative score 0 to 3),"HCM mice (αMHC^719/+) [2]; (R)-Pio p=0.01, (S)-Pio p=0.916, listed as (R)-stereoisomer of a thiazolidinedione",significantly lessened
same,development of myocardial hypertrophy (maximum thickness of the wall of the left ventricle),HCM mice (αMHC^719/+) [3]; [5],significantly inhibited
same,development of myocardial hypertrophy (maximum thickness of the wall of the left ventricle),"HCM mice (αMHC^719/+) [3]; (R)-Pio p<0.001, (S)-Pio p=0.072, listed as (R)-stereoisomer of a thiazolidinedione",significantly lessened

# — patent US20240180887A1, “USE OF PPAR(gamma) AGONISTS OR MPC INHIBITORS FOR TREATING PRIMARY, INNATE DISEASES OF THE CARDIAC MUSCLE (CARDIOMYOPATHIES)” (PREVENTAGE THERAPEUTICS GMBH, priority 2021, published 2024)
